For this experiment, the target named is T1, E. coli MTA/AdoHcy nucleosidase (MTAN) (Escherichia coli, UniProt P0AF12).
T1 construct: hexahistidine; made in house; host or cells: bacterial expression vector
Kind of experiment: MTAN direct UV spectrophotometric enzyme assay (cleavage of MTA, absorbance at 275 nm). The format is biochemical. Particulars: initial rates fitted to competitive inhibition; 100-250 μM MTA, 50 mM sodium phosphate pH 7, 0-1 μM inhibitor, 25° C; read-out: Ki (inhibitor constant for the initial rate reactions). On the procedure: The gene for E. coli MTA/AdoHcy nucleosidase (MTAN) was amplified and cloned into a bacterial hexahistidine plasmid expression vector. Induced recombinant enzyme was purified by Nickel-chelate chromatography, and dialyzed into 100 mM sodium phosphate buffer, pH 7. Enzyme purity was assessed by SDS-PAGE and concentration assigned using the experimentally determined extinction coefficient (ε280=10480 M^−1cm^−1).
MTAN assays were performed in 1 mL quartz cuvettes using a Perkin Elmer Lambda 35 UV/V is spectrometer outfitted with KinLab and UV WinLab software. This direct UV spectrophotometric assay follows the decrease in absorbance at 275 nm that accompanies the cleavage of MTA to MTR and Ade. (2-(4-Amino-5H-pyrrolo[3,2-d]pyrimidin-7-yl)-5-methyl-sulfanylmethyl-pyrrolidine-3,4-diol) and (2-Amino-4-[5-(4-amino-5H-pyrrolo[3,2-d]pyrimidin-7-yl)-3,4 dihydroxy-pyrrolidin-2-ylmethylsulfanyl]-butyric acid) inhibitor concentrations were assigned using UV absorbance and the extinction coefficient of 9-deazaadenine. […] Reactions were initiated by the addition of […] MTAN enzyme to the 1 mL assay mixture, and the change in UV absorbance followed for 20-25 minutes. […] Inhibitor constants for the initial rate reactions (Ki's) were calculated by fitting the results to the equation for competitive inhibition.

pKi: −log10 of the molar value.

One may read the pKi as −log10 of the Ki, conventionally taken in molar units.

T1 sequence (P0AF12 whole entry): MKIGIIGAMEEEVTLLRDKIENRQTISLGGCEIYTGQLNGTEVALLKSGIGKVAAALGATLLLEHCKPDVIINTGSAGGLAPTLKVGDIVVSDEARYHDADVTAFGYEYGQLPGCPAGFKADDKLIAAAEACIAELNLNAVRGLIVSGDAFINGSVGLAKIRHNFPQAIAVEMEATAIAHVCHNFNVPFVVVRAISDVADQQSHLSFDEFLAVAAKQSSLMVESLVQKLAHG

With `Nc1ncnc2c(C3NC(CSCCC(N)C(=O)O)C(O)C3O)c[nH]c12` (stereo not shown) [2-Amino-4-[5-(4-amino-5H-pyrrolo[3,2-d]pyrimidin-7-yl)-3,4-dihydroxy-pyrrolidin-2-ylmethylsulfanyl]-butyric acid], the pKi was more than 8.00.

Source of the values: patent US20090012104A1, “Inhibitors of 5'-Methylthioadenosine Phosphorylase and 5'-Methylthioadenosine/S-Adenosylhomocysteine Nucleosidase” (priority 2004, published 2009).
